Data on four compounds can be found in DBAASP.

Values after ≈ are worked out from the molar mass of the structure shown. Values joined by “and” are separate entries in the source; they are usually repeats but may differ in a detail not shown here. Equal entries are not always repeated. A value given as a limit tells only on which side of the number the result lay.

Test systems include Enterococcus faecalis A4; Staphylococcus aureus MR; Citrobacter freundii; Enterobacter cloacae; Enterococcus faecalis; Escherichia coli NDM-1; Escherichia coli O157:H7; Klebsiella oxytoca; Morganella morganii; Escherichia coli 078; Escherichia coli ER2566; Escherichia coli K88; Escherichia coli UB1005.
Common to all, as to experiment: ≥ marks a high value that may be exact or a test limit, other limits are often not marked, values filed in µg/mL are converted to µM
Experiment [1] concerns Bacillus amyloliquefaciens ATCC 23842.
Experiment [2] deals with Bacillus cereus ATCC 14579.
The test system of experiment [3] is Bacillus licheniformis ATCC 14580.
In experiment [4] the test system is Bacillus subtilis ATCC 6051.
Experiment [5] deals with Enterococcus faecalis 1F-1.
The test system of experiment [6] is Enterococcus faecium 4W-9.
Experiment [7] deals with Enterococcus faecium 5F-10.
Experiment [8] relates to Escherichia coli ATCC 25922.
The subject of experiment [9] is Proteus mirabilis ATCC 35659.
Experiment [10] relates to Pseudomonas aeruginosa PAO1.
Experiment [11] has as its system Salmonella enterica ATCC H9812.
Experiment [12] deals with Staphylococcus aureus 215.
Experiment [13] has as its system Staphylococcus aureus ATCC 29213.
Experiment [14] concerns Bacillus subtilis ATCC 23857.
Experiment [15] has as its system Klebsiella pneumoniae NDM-1.
For experiment [16], the system named is Pseudomonas aeruginosa ATCC 15692.
Experiment [17] concerns Salmonella typhimurium PY1.
The subject of experiment [18] is Staphylococcus aureus ATCC 1717.
The subject of experiment [19] is Bacillus subtilis KCTC 3068.
Experiment [20] deals with Enterococcus faecium ATCC 51559.
For experiment [21], the system named is Escherichia coli KCTC 1682.
In experiment [22] the test system is Pseudomonas aeruginosa CCARM 2095.
Experiment [23] deals with Pseudomonas aeruginosa KCTC 1637.
The subject of experiment [24] is Salmonella typhimurium KCTC 1926.
Experiment [25] concerns Staphylococcus aureus CCARM 3089.
Experiment [26] relates to Staphylococcus aureus CCARM 3090.
Experiment [27] concerns Staphylococcus aureus CCARM 3095.
For experiment [28], the system named is Staphylococcus aureus KCTC 1621.
Experiment [29] concerns Staphylococcus epidermidis KCTC 1917.
In experiment [30] the test system is Bacillus subtilis ATCC 11060.
In experiment [31] the test system is Enterococcus faecalis ATCC 29212.
Experiment [32] deals with Escherichia coli CMCC 44102.
For experiment [33], the system named is Escherichia coli CVCC 1515.
For experiment [34], the system named is Pseudomonas aeruginosa ATCC 10419.
In experiment [35] the test system is Pseudomonas aeruginosa ATCC 21625.
Experiment [36] deals with Pseudomonas aeruginosa ATCC 21630.
Experiment [37] has as its system Pseudomonas aeruginosa ATCC 27853.
Experiment [38] has as its system Salmonella enterica subsp. enterica serovar Pullorum C79-13.
Experiment [39] deals with Salmonella enterica subsp. enterica serovar Typhimurium ATCC 14028.
In experiment [40] the test system is Salmonella enterica subsp. enterica serovar Typhimurium C77-31.
In experiment [41] the test system is Staphylococcus aureus ATCC 25923.
Experiment [42] relates to Staphylococcus epidermidis ATCC 12228.

As usually defined, the MIC is the lowest concentration that inhibits growth of the organism. Low readings indicate a more susceptible organism, high ones a less susceptible organism. With `CC(C)C[C@H](NC(=O)[C@H](CC(C)C)NC(=O)[C@@H](N)CCC(=O)O)C(=O)N[C@@H](CO)C(=O)N[C@@H](CCCN=C(N)N)C(=O)N[C@H](C(=O)N[C@@H](CC(=O)O)C(=O)O)C(C)C` [ELLSRVD], the MIC in experiment [1] was at least 77 µM; in [2], at least 77 µM; in experiment [3], at least 77 µM; in experiment [4] it was at least 77 µM; in experiment [5] it was at least 154 µM; against Enterococcus faecalis A4 it was at least 154 µM. Besides, the minimal inhibitory concentration (MIC) in [6] is at least 154 µM; in [7], at least 154 µM; in experiment [8], over 154 µM; in experiment [9], at least 154 µM; in [10], over 154 µM; in experiment [11] it was at least 154 µM. For the same compound, the MIC was 4.81 µM (≈ 4 µg/mL) in experiment [12], 4.81 µM (≈ 4 µg/mL) in experiment [13] and 3.4 µM (≈ 2.83 µg/mL) in the experiment with Staphylococcus aureus MR.

In the case of `CC[C@H](C)[C@H](NC(=O)CN)C(=O)N[C@H](C(=O)N[C@@H](C)C(=O)NCC(=O)N[C@H](C(=O)N[C@H](C(=O)N[C@H](C(=O)N[C@@H](CCCCN)C(=O)N[C@H](C(=O)N[C@@H](CCCCN)C(=O)N[C@@H](CCCCN)C(N)=O)[C@@H](C)CC)[C@@H](C)CC)[C@@H](C)CC)[C@@H](C)CC)[C@@H](C)CC` [GIIAGIIIKIKK], the minimal inhibitory concentration (MIC) was 8 µM (≈ 10.1 µg/mL) in experiment [14]; 8 µM (≈ 10.1 µg/mL) in the experiment on Citrobacter freundii; 22.6 µM (≈ 28.6 µg/mL) in the experiment with Enterobacter cloacae; 16 µM (≈ 20.3 µg/mL) in the experiment with Enterococcus faecalis; 16 µM (≈ 20.3 µg/mL) with Escherichia coli NDM-1; at least 32 µM against Escherichia coli O157:H7. Moreover, the minimal inhibitory concentration (MIC) against Klebsiella oxytoca is 16 µM (≈ 20.3 µg/mL); in experiment [15], 22.6 µM (≈ 28.6 µg/mL); with Morganella morganii, at least 128 µM; in [16], at least 64 µM; in [17], at least 64 µM; in experiment [18] it was at least 128 µM.

On to `CC[C@H](C)[C@H](NC(=O)[C@@H](NC(=O)[C@H](Cc1cnc[nH]1)NC(=O)[C@H](CCCN=C(N)N)NC(=O)[C@H](C)NC(=O)[C@H](CCCN=C(N)N)NC(=O)[C@H](CC(C)C)NC(=O)[C@H](CO)NC(=O)[C@H](C)NC(=O)[C@H](CO)NC(=O)[C@H](CC(C)C)NC(=O)[C@@H](N)CC(N)=O)[C@@H](C)O)C(=O)N1CCC[C@H]1C(=O)N[C@@H](CCC(N)=O)C(=O)N[C@@H](CO)C(=O)N[C@@H](CCCN=C(N)N)C(=O)N[C@@H](CCCCN)C(=O)N[C@@H](Cc1ccccc1)C(=O)NCC(=O)N[C@@H](CCCN=C(N)N)C(=O)N[C@@H](CCCN=C(N)N)C(=O)O` [NLSASLRARHTIPQSRKFGRR], for which the MIC in experiment [19] is 12.5 µM (≈ 30.6 µg/mL); in [20], at least 50 µM; in [21] it was 6.3 µM (≈ 15.4 µg/mL); in experiment [22], 12.5 µM (≈ 30.6 µg/mL); in [23] it was 6.3 µM (≈ 15.4 µg/mL); in experiment [24], 6.3 µM (≈ 15.4 µg/mL). The MIC is 25 µM (≈ 61.3 µg/mL) in experiment [25]; at least 50 µM in experiment [26]; 25 µM (≈ 61.3 µg/mL) in [27]; 12.5 µM (≈ 30.6 µg/mL) in experiment [28]; 6.3 µM (≈ 15.4 µg/mL) in [29].

Turning to `CC[C@H](C)[C@H](NC(=O)[C@H](CCCCN)NC(=O)[C@H](CCCN=C(N)N)NC(=O)[C@H](CC(C)C)NC(=O)[C@H](Cc1ccccc1)NC(=O)[C@H](CCCN=C(N)N)NC(=O)CNC(=O)[C@H](Cc1ccccc1)NC(=O)[C@@H](N)CCCN=C(N)N)C(=O)N[C@@H](CCCN=C(N)N)C(=O)N[C@@H](CCCN=C(N)N)C(=O)N[C@@H](Cc1ccccc1)C(=O)N[C@@H](CCCN=C(N)N)C(=O)N1CCC[C@H]1C(=O)N[C@@H](CCCCN)C(=O)N[C@H](C(=O)N[C@H](C(=O)N[C@H](C(=O)N[C@H](C(=O)N[C@H](C(=O)N[C@@H](CCC(N)=O)C(=O)NCC(=O)N[C@@H](CO)C(=O)N[C@@H](C)C(=O)N[C@@H](CCCN=C(N)N)C(=O)N[C@@H](Cc1ccccc1)C(=O)NCC(N)=O)[C@@H](C)CC)[C@@H](C)O)[C@@H](C)CC)[C@@H](C)O)C(C)C` [RFGRFLRKIRRFRPKVTITIQGSARFG], the minimal inhibitory concentration (MIC) in experiment [30] was 16 µM (≈ 52.2 µg/mL); in experiment [31], 16 µM (≈ 52.2 µg/mL); in the experiment on Escherichia coli 078 it was 7.99 µM (≈ 26.1 µg/mL); in [8], 1.99 µM and 3.83 µM; in experiment [32], 1.01 µM (≈ 3.3 µg/mL); in [33], 7.99 µM (≈ 26.1 µg/mL). For the same compound, the minimum inhibitory concentration (MIC) was 0.49 µM (≈ 1.6 µg/mL) in the experiment with Escherichia coli ER2566; 1.99 µM (≈ 6.5 µg/mL) against Escherichia coli K88; 1.01 µM (≈ 3.3 µg/mL) in the experiment on Escherichia coli UB1005; 4.01 µM (≈ 13.1 µg/mL) in experiment [34]; 1.99 µM (≈ 6.5 µg/mL) in [35]; 7.99 µM (≈ 26.1 µg/mL) in experiment [36]. For the same compound, the MIC in [37] was 1.99 µM (≈ 6.5 µg/mL); in [38] it was 4.01 µM (≈ 13.1 µg/mL); in experiment [39], 4.01 µM (≈ 13.1 µg/mL); in experiment [40] it was 4.01 µM (≈ 13.1 µg/mL); in [41], 1.01 µM (≈ 3.3 µg/mL); in experiment [13], 1.99 µM (≈ 6.5 µg/mL). This compound also came in with a minimal inhibitory concentration (MIC) in experiment [42] of 16 µM (≈ 52.2 µg/mL).
